In assay [1] the target is hepatic lipase (HL) (Homo sapiens (Human), UniProt P11150). As to the kind of experiment: HL assay: hepatic lipase activity with fluorescent substrate A10070 in DMPG vesicles. The format is biochemical. On the procedure:
Endothelial lipase (EL) and hepatic lipase (HL) activities were measured using a fluorescent substrate, A10070, (Invitrogen, CA) doped into an artificial vesicle containing DMPG (Avanti Polar Lipids) as the excipient. Vesicles were prepared by combining 571 μL of 29 mM DMPG in a 1:1 mixture of MeOH and CHCl3 with 2000 μL of 1 mM A10070 in a 1:1 mixture of MeOH and CHCl3. The mixture was dried under nitrogen in multiple vials then resuspended in 20 mL total volume of 50 mM HEPES pH 8.0 buffer containing 50 mM NaCl and 0.2 mM EDTA. The sample was allowed to sit at room temperature for 15 min and then was sonicated 3×4 mins on ice with a Branson Sonicator using duty cycle 1. This preparation provides vesicles with a mole fraction of 0.11 for the FRET substrate.
The enzymatic assay was measured using 384-well white Optiplates. Each well contained 20 μL of assay buffer (50 mM HEPES pH 8.0, 50 mM NaCl and 1 mM CaCl2) and 0.25 μL of a DMSO solution containing a compound of interest. EL or HL (10 μL) was added and allowed to incubate with the compound for 30 min at 37° C. The source of EL was conditioned media obtained from HT-1080 cells that were transformed using RAGE technology (Athersys) to overexpress endogenous EL, and HL was partially purified from conditioned media obtained from COS cells overexpressing HL. The reaction was started by the addition of 10 μL of a 1:10 dilution of vesicles. The final total reaction volume was […]. The reaction rates were measured on a Gemini plate reader with an excitation wavelength of 490 nm and an emission wavelength of 530 nm. Readings were taken over a period of 60 minutes, and the slope between 300 and 900 secs of the readout was used to calculate the rate of the reaction.

The target in assay [2] is Endothelial lipase (EL) (Homo sapiens (Human), UniProt Q9Y5X9). As to the kind of experiment: EL assay: endothelial lipase activity with fluorescent substrate A10070 in DMPG vesicles. The format is biochemical. The essentials: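 EL from conditioned medium of HT-1080 cells engineered to overexpress endogenous EL; HL partially purified from conditioned medium of HL-overexpressing COS cells. Enzyme preincubated with compound 30 min at 37° C in 50 mM HEPES pH 8.0, 50 mM NaCl, 1 mM CaCl2; DMPG vesicles carrying FRET substrate (0.11 mole fraction) then added.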

The text below walks through data of patent publication US8987314B2, “Amide, urea or sulfone amide linked benzothiazole inhibitors of endothelial lipase” (Bristol-Myers Squibb Company, priority 2012, dated 2015).

Molecules are shown by their SMILES. Where two headings read alike, the source gives them in different places.

Chain of hepatic lipase (HL) (P11150 23-499, species assumed): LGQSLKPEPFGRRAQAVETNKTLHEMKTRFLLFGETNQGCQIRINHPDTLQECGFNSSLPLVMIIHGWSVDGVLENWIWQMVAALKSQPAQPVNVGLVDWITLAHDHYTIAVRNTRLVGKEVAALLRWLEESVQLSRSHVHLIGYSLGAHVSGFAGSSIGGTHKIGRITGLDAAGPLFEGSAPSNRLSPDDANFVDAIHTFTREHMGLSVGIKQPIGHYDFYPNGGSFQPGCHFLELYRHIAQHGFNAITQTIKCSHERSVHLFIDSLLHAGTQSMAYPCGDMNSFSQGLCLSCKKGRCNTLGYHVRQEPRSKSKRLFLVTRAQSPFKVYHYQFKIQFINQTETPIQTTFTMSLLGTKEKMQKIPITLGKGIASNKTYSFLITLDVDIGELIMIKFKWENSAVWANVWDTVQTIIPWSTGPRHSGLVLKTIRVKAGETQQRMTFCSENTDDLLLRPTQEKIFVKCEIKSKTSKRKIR
Chain of Endothelial lipase (EL) (Q9Y5X9 21-500): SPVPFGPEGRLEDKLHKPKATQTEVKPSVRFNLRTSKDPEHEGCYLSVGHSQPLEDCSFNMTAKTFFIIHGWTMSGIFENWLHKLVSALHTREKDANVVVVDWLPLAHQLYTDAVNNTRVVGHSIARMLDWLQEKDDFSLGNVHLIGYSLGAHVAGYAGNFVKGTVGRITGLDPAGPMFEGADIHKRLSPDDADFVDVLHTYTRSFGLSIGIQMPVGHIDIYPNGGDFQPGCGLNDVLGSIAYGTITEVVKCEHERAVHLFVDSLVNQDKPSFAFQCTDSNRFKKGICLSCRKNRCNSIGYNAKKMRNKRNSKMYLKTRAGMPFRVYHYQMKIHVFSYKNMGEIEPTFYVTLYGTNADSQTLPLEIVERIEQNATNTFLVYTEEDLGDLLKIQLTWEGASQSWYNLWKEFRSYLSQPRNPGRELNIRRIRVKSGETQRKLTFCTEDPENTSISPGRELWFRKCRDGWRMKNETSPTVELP

Take `COCCS(=O)(=O)C(C(=O)NCc1nnc(C)o1)c1nc2cc(F)c(-c3ccc(C(=O)N4CC(C)(O)C4)cc3)cc2s1` (stereo not drawn) [Example B260, 2-{5-fluoro-6-[4-(3-hydroxy-3-methyl-azetidine-1-carbonyl)phen-yl]-1,3-benzothiazol-2-yl}-2-(2-methoxyethane-sulfonyl)-N-[(5-methyl-1,3,4-oxadiazol-2-yl)methyl]acetamide]: the IC50 (commonly the concentration that inhibits the measured activity by half) in assay [1] worked out at 1.34 µM; in assay [2] it was 0.067 µM.

`COC1CN(C(=O)c2ccc(-c3ccc4nc(C(C(=O)NCCS(N)(=O)=O)S(=O)(=O)Cc5ccc(OC(F)(F)F)cc5)sc4c3)cc2)C1` (stereo not drawn) [Example B300, 2-{6-[4-(3-methoxy-azetidine-1-carbonyl)phen-yl]-1,3-benzothiazol-2-yl}-N-(2-sulfamoyl-ethyl)-2-{[4-(trifluoro-methoxy)phenyl]methane-sulfonyl}acetamide]: the IC50 in assay [1] turned out to be 0.0851 µM; in assay [2], 0.0055 µM.

As for `NS(=O)(=O)CCNC(=O)C(c1nc2cc(-c3ccc(F)nc3)ccc2s1)S(=O)(=O)Cc1ccc(F)cc1` (stereo not drawn) [Example B310, 2-[(4-fluorophenyl)meth-anesulfonyl]-2-[5-(6-fluoropyridin-3-yl)-1,3-benzothiazol-2-yl]-N-(2-sulfamoylethyl)acetamide], the IC50 is 0.0514 µM in assay [1] and 0.001 µM in assay [2].

For `COCCn1cc(-c2ccc3nc(C(C(=O)NCCS(N)(=O)=O)S(=O)(=O)CC4CC4)sc3c2)cn1` (stereo not drawn) [Example B165, 2-((cyclopropylmethyl)sul-fonyl)-2-(6-(1-(2-methoxyethyl)-1H-pyrazol-4-yl)-1,3-benzothiazol-2-yl)-N-(2-sulfamoylethyl)a-cetamide], the IC50 in assay [1] is 0.317 µM; in assay [2] it was 0.037 µM.

For the compound `Cc1cc(CNC(=O)C(c2nc3ccc(-c4ccccc4)cc3s2)S(C)(=O)=O)on1` (stereo not drawn) [Example B233], the figures for the IC50 in assay [1] and in assay [2] were 0.0036 µM and 0.0316 µM, respectively.

As for `CS(=O)(=O)C(C(=O)NCCS(N)(=O)=O)c1nc2ccc(-c3cnn(CCC4CCOCC4)c3)cc2s1` (stereo not drawn) [Example B317, 2-methanesulfonyl-2-(6-{1-[2-(oxan-4-yl)ethyl]-1H-pyrazol-4-yl}-1,3-benzothiazol-2-yl)-N-(2-sulfamoylethyl)acetamide], the IC50 came to 0.391 µM in assay [1] and 0.013 µM in assay [2].

As for `COCCNC(=O)c1ccc(-c2ccc3nc(C(C(=O)NCCS(N)(=O)=O)S(=O)(=O)CCC(F)(F)F)sc3c2)cc1` (stereo not drawn) [Example B110, N-(2-methoxyethyl)-4-(2-(2-oxo-2-((2-sulfamoyl-ethyl)amino)-1-((3,3,3-trifluoropropyl)sulfonyl)eth-yl)-1,3-benzothiazol-6-yl)benzamide], the IC50 is 0.18 µM in assay [1] and less than 0.01 µM in assay [2].

On to `COC[C@H](C)NC(=O)c1ccc(-c2ccc3nc(C(C(=O)NCCS(N)(=O)=O)S(=O)(=O)Cc4ccc(OC(F)(F)F)cc4)sc3c2)cc1` (stereo partly drawn) [Example B250, N-[(2S)-1-methoxypropan-2-yl]-4-(2-{[(2-sulfamoyl-ethyl)carbamoyl][4-(trifluoromethoxy)phen-yl]methanesulfonylmethyl}-1,3-benzothiazol-6-yl)ben-zamide], for which the figures for the IC50 in assay [1] and in assay [2] were 0.0384 µM and 0.0053 µM, respectively.

For the compound `CC(=O)Nc1cccc(-c2ccc3sc(C(C(=O)NCCS(N)(=O)=O)S(C)(=O)=O)nc3c2)c1` (stereo not drawn) [Example B379, 2-[5-(3-acetamidophenyl)-1,3-benzothiazol-2-yl]-2-methanesulfonyl-N-(2-sulfamoylethyl)acetamide], the IC50 in assay [1] came out at 0.0837 µM; in assay [2], 0.0005 µM.

`CS(=O)(=O)C(C(=O)NCCS(N)(=O)=O)c1nc2ccc(-c3ccc(-c4nnc(N)s4)cc3)cc2s1` (stereo not drawn) [Example B223, 2-{6-[4-(5-amino-1,3,4-thiadiazol-2-yl)phenyl]-1,3-benzothiazol-2-yl}-2-methanesulfonyl-N-(2-sulfamoylethyl)acetamide]: the IC50 in assay [1] was determined as 0.0077 µM; in assay [2] it was 0.0012 µM.

Consider `NS(=O)(=O)CCNC(=O)C(c1nc2ccc(-c3ccc(C(=O)N4CCOCC4)cc3)cc2s1)S(=O)(=O)Cc1ccc(F)cc1` (stereo not drawn) [Example B296, 2-[(4-fluorophenyl)methanesulfonyl]-2-{6-[4-(morpholine-4-carbon-yl)phenyl]-1,3-benzothiazol-2-yl}-N-(2-sulfamoyleth-yl)acetamide], for which the results for the IC50 in assay [1] and in assay [2] were 0.267 µM and 0.0029 µM, respectively.

Take `CC(C)(C)OC(=O)c1ccc(-c2ccc3nc(C(C(=O)NCCS(N)(=O)=O)S(=O)(=O)Cc4ccccc4)sc3c2)cc1` (stereo not drawn) [Example B276, tert-butyl 4-(2-{phenylmethanesulfonyl[(2-sulfamoylethyl)car-bamoyl]methyl)-1,3-benzothiazol-6-yl)benzoate]: the IC50 was 0.0008 µM in assay [1] and 0.0011 µM in assay [2].

Consider `CS(=O)(=O)C(C(=O)NCCS(N)(=O)=O)c1nc2ccc(-c3ccc(C(=O)N4CCC(F)(F)CC4)cc3)cc2s1` (stereo not drawn) [Example B171, 2-(6-(4-((4,4-difluoro-1-piperidinyl)carbonyl)phen-yl)-1,3-benzothiazol-2-yl)-2-(methylsulfonyl)-N-(2-sulfamoylethyl)a-cetamide], for which the IC50 was 0.019 µM in assay [1] and less than 0.01 µM in assay [2].

Turning to `CS(=O)(=O)C(C(=O)NCCS(N)(=O)=O)c1nc2cc(-c3cccc(F)n3)ccc2s1` (stereo not drawn) [Example B380, 2-[5-(6-fluoropyridin-2-yl)-1,3-benzothiazol-2-yl]-2-methanesulfonyl-N-(2-sulfamoylethyl)acetamide], the IC50 in assay [1] is 0.0185 µM; in assay [2] it was 0.002 µM.

`CC1(O)CN(C(=O)c2ccc(-c3ccc4nc(C(C(=O)NCCS(N)(=O)=O)S(C)(=O)=O)sc4c3)cc2)C1` (stereo not drawn) [Example B174, 2-(6-(4-(3-Hydroxy-3-methylazetidine-1-carbonyl)phenyl)benzo[d]thiazol-2-yl)-2-(methylsulfonyl)-N-(2-sulfamoylethyl)acetamide]: the IC50 was 0.402 µM in assay [1] (HL partially purified from conditioned media of COS cells, 30 min incubation with compound at 37° C., A10070/DMPG vesicles) and less than 0.01 µM in assay [2] (EL from conditioned media of HT-1080 cells, 30 min incubation with compound at 37° C., A10070/DMPG vesicles).

Consider `CS(=O)(=O)C(C(=O)NCCS(N)(=O)=O)c1nc2ccc(-c3ccc(C(=O)N4CCC(O)CC4)cc3)cc2s1` (stereo not drawn) [Example B177, 2-(6-(4-((4-hydroxy-1-piperidinyl)carbonyl)phen-yl)-1,3-benzothiazol-2-yl)-2-(methylsulfonyl)-N-(2-sulfamoylethyl)a-cetamide], for which the IC50 in assay [1] is 0.495 µM; in assay [2], less than 0.01 µM.

For `CO[C@H]1CCN(C(=O)c2ccc(-c3ccc4nc(C(C(=O)NCCS(N)(=O)=O)S(=O)(=O)Cc5ccc(OC(F)(F)F)cc5)sc4c3)cc2)C1` (stereo partly drawn) [Example B356, 2-(6-{4-[(3S)-3-methoxy-pyrrolidine-1-carbonyl]phen-yl}-1,3-benzothiazol-2-yl)-N-(2-sulfamoyl-ethyl)-2-{[4-(trifluoro-methoxy)phenyl]methane-sulfonyl}acetamide], the IC50 stood at 0.0267 µM in assay [1] and 0.0027 µM in assay [2].

In the case of `NS(=O)(=O)CCNC(=O)C(c1nc2ccc(-c3cccc(C(=O)NC4CCC4)c3)cc2s1)S(=O)(=O)CCC(F)(F)F` (stereo not drawn) [Example B337, N-cyclobutyl-3-(2-{[(2-sulfamoylethyl)carba-moyl](3,3,3-trifluoropropane-sulfonyl)methyl}-1,3-benzothiazol-6-yl)benzamide], the IC50 in assay [1] is 0.0284 µM; in assay [2], 0.0068 µM.

Take `COCCNC(=O)c1ccc(-c2ccc3nc(C(C(=O)NCCS(N)(=O)=O)S(=O)(=O)Cc4ccc(Cl)c(Cl)c4)sc3c2)cc1` (stereo not drawn) [Example B292, 4-{2-[(3,4-dichlorophen-yl)methanesulfonyl[(2-sulfa-moylethyl)carbamoyl]meth-yl]-1,3-benzothiazol-6-yl}-N-(2-methoxyethyl)ben-zamide]: the IC50 amounted to 0.112 µM in assay [1] and 0.0202 µM in assay [2].

For the compound `CC1(O)CN(C(=O)c2ccc(-c3ccc4nc(C(C(=O)NCCS(N)(=O)=O)S(=O)(=O)Cc5ccc(C(F)(F)F)cc5)sc4c3)cc2)C1` (stereo not drawn) [Example B322, 2-{6-[4-(3-hydroxy-3-methylazetidine-1-carbonyl)phenyl]-1,3-benzothiazol-2-yl}-N-(2-sulfamoylethyl)-2-{[4-(trifluoromethyl)phen-yl]methanesulfonyl}a-cetamide], the IC50 was determined as 0.0374 µM in assay [1] and 0.0024 µM in assay [2].

As for `CS(=O)(=O)C(C(=O)NCCS(N)(=O)=O)c1nc2ccc(-c3ccc(C(=O)NCCO)cc3)cc2s1` (stereo not drawn) [Example B40, N-(2-hydroxyethyl)-4-(2-(1-(methylsulfonyl)-2-oxo-2-((2-sulfamoylethyl)a-mino)ethyl)-1,3-benzothiazol-6-yl)ben-zamide], the IC50 was 0.019 µM in assay [1] and less than 0.01 µM in assay [2].
